# Where “and” joins values, the source holds several entries; their conditions need not be identical. Identical values can stand only once. Entries after “also recorded” stand apart in the source; their conditions may differ.
# Tests used:
# BCRP = biological target: T1, BCRP (Homo sapiens, UniProt Q9UNQ0); test: BCRP transport assay (Hoechst 33342) in MCF-7/MX cells; type: cell-based
# T1 construct: endogenous in cells; host or cells: MCF-7/MX human breast adenocarcinoma cells (mitoxantrone-selected)
# T1 sequence (Q9UNQ0 1-655): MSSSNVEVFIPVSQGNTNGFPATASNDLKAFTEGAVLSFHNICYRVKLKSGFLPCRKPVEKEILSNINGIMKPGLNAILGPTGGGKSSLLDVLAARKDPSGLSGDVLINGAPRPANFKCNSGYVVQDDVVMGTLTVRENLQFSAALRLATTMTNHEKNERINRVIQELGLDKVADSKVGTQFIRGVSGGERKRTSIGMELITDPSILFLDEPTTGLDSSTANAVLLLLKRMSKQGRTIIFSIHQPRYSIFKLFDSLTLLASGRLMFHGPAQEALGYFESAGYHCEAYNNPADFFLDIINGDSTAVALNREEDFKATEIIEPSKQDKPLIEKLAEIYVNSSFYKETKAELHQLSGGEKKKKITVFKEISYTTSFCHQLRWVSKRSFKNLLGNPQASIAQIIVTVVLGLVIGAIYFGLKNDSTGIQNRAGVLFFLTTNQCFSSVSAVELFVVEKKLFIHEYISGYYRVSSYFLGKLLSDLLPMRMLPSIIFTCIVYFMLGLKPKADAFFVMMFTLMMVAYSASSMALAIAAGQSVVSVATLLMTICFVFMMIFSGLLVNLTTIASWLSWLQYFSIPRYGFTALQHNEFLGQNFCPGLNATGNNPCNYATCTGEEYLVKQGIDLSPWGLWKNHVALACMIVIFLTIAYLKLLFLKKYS
# Description: Breast cancer resistance protein transport activity was determined in the BCRP-expressing MCF-7/MX cell line. Hoechst 33342 was applied as transporter substrate and 1 μM Ko143 as positive control or 0.5% DMSO as negative control and the assay was performed according to the P-gp assay. Fluorescence was measured at an excitation wavelength of 355 nm and emission wavelength of 460 nm. The transport activity of BCRP was analyzed by determining the plateau of the fluorescence-time curve by using non-linear regression (one-phase exponential fit). Normalization of the data to Ko143 (100% inhibition) and DMSO (0% inhibition) was performed.
# Pdr5 [1] = biological target: T2, Pdr5 (Saccharomyces cerevisiae, UniProt P33302); test: Pdr5 transport assay (R6G) in plasma membrane preparations; type: biochemical; design: R6G transport activity of Pdr5 WT inhibited to (initial screen): dose or concentration left out as unconfirmed; details: for R6G transport activity of Pdr5 WT inhibited to (initial screen): relative to Pdr5 WT without compound
# T2 construct: effect on (A) the transport activity of Pdr5 WT and (B) their effect on the ATPase activity; made in house; host or cells: S. cerevisiae YRE1001 (pdr1-3 background), isolated plasma membranes
# T2 sequence (P33302 whole entry): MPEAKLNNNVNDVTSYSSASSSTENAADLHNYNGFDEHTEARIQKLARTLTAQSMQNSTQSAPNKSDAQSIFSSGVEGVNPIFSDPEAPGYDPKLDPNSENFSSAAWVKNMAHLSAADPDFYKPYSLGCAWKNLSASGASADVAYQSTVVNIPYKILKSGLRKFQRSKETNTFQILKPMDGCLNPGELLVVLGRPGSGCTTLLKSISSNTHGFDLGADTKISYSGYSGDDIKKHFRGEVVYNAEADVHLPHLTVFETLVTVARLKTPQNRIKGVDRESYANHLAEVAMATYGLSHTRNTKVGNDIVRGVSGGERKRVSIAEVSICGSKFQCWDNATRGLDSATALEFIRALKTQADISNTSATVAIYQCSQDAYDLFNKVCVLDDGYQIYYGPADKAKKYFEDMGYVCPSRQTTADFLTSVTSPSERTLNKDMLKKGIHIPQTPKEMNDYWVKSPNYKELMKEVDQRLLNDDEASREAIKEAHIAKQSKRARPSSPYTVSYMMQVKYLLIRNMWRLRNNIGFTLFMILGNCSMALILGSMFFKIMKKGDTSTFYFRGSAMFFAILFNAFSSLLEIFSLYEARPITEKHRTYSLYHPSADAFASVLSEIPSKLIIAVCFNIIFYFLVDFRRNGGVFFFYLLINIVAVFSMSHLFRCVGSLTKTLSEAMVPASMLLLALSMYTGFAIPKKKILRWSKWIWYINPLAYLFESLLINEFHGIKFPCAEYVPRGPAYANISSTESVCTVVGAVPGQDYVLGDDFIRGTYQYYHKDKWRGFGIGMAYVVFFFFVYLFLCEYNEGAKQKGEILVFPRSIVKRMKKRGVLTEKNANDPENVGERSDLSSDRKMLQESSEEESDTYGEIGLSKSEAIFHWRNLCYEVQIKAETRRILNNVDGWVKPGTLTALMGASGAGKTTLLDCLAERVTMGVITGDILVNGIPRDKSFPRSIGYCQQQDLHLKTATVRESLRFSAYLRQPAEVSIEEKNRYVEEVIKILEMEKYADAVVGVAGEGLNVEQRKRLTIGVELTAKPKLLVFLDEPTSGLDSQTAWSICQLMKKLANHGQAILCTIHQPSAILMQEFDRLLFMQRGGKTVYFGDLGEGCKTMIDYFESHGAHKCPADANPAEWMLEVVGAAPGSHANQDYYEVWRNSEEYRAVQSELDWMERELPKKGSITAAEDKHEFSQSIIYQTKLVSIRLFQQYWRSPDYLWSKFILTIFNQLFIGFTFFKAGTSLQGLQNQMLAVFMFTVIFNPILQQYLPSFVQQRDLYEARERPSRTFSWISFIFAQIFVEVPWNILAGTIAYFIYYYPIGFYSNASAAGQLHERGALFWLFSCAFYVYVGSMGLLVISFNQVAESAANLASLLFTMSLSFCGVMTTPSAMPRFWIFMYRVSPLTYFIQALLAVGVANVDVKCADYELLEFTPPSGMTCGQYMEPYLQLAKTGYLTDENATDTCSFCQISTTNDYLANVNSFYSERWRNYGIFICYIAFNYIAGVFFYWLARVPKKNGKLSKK
# Description: (§1) Saccharomyces cerevisiae cells expressing Pdr5 WT or the E1036Q (EQ) mutant were cultured to an OD600 of 1.5 in YPD-media at 25°C. The nitrogen source was replenished by addition of a 10th volume of 5x YP (50 g/l yeast extract, 100 g/l peptone). The cells were grown to an OD of 3.5 and harvested (5000 ×g at 4°C for 15 min). The isolation of Pdr5 containing PMs was performed as described ([Kolaczkowski et al., 1996]; [Ernst et al., 2008]).
# Active transport of R6G was measured according to the protocol developed by [Kolaczkowski et al. (1996)], using a Tecan Infinite 200 pro reader (Tecan Group AG, Männedorf, Switzerland). 6 μg of the isolated PM containing Pdr5 were resuspended in 200 μl of the transport buffer (50 mM HEPES, pH 7.0, 5 mM MgCl2, 10 mM NaN3, and 150 nM R6G) and incubated in a black 96-well plate at 30°C. 5 μl of the test compound were added at the indicated concentrations. Active transport was initiated by the addition of 10 μl 200 mM ATP and fluorescence intensity was recorded in 15 s-intervals for 20 min (excitation wavelength at 524 nm, emission wavelength at 558 nm, number of flashes 30, integration time 2000 μs). IC50 determination was performed with a serial dilution of the test compounds.
# HCT-15 cells = test: CellTiter-Glo cell viability assay (cytotoxicity), HCT-15; type: cell-based; details: Homo sapiens, 48 h, P-gp expressing, mean ± SEM
# Description: (§2) The human lung adenocarcinoma cell line A549 was cultured in DMEM medium supplemented with 10% fetal bovine serum (FBS), 100 U/mL penicillin and 100 μg/mL streptomycin. P-gp-expressing human colon adenocarcinoma cells HCT-15 were cultured in RPMI 1640 medium supplemented with 10% FBS, 100 U/mL penicillin and 100 μg/mL streptomycin. BCRP-expressing MCF-7/MX human breast adenocarcinoma cells were cultured in DMEM medium supplemented with 10% FBS, 100 U/mL penicillin and 100 μg/mL streptomycin. MRP1-expressing H69AR human small cell lung cancer cells were cultured in RPMI 1640 medium (ATCC modification) supplemented with 20% FBS, 100 U/mL penicillin and 100 μg/mL streptomycin. All cancer cell lines employed have been systematically characterized regarding their respective ABC transporter expression profile ([Sachs et al., 2019]).
# (§3) Cytotoxic activity of test compounds was analyzed after 48 h using the CellTiter-Glo Luminescent Cell Viability Assay published previously ([Weber et al., 2017]) in 384-well plates with the following cell densities: A549, MCF-7/MX: 2 × 10^3 cells/well; HCT-15: 3 × 10^3 cells/well; H69AR: 5 × 10^3 cells/well. Pipetting was conducted with the CyBi-Well 96-channel simultaneous pipettor (Analytik Jena AG, Jena, Germany). For generation of dose-response curves and calculation of IC50 values, the four-parameter logistic model was applied.
# A549 cells = test: CellTiter-Glo cell viability assay (cytotoxicity), A549; type: cell-based, human; details: Homo sapiens, A549; 48 h, mean ± SEM
# Description: as §2, §3
# Pdr5 [2] = biological target: T2, Pdr5; test: Pdr5 ATPase assay (oligomycin-sensitive) in plasma membrane preparations; type: biochemical; details: highest concentrations (10 mM), in comparison to Pdr5 WT in the absence of any compound
# Description: as §1
# Oligomycin (OM)-sensitive ATPase activity was measured from 0.8 μg PM containing Pdr5 incubated with 2 mM ATP, 5 mM MgCl2 in 270 mM TRIS-glycine buffer (pH 9.5) and 2.5 μl of the test compounds or DMSO as a control in a total volume of 100 μl. To reduce the background activities, 0.2 mM ammonium molybdate, 10 mM NaN3 and 50 mM KNO3, respectively, were added ([Dufour et al., 1988]; [Goffeau and Dufour, 1988]). In a second assay, OM (20 μg/ml) was added to an otherwise identical setup. After incubation at 30°C for 20 min, the reaction was stopped by adding 25 μl of the reaction to 175 μl 40 mM H2SO4. The amount of released inorganic phosphate was determined by a colometric assay in 96-well plates ([Goffeau and Dufour, 1988]; [Decottignies et al., 1994]; [Wada et al., 2002]). The difference of both assays ( ± OM) corresponds to the specific ATPase activity of Pdr5 ([Ernst et al., 2008]).
# MCF-7/MX cells = test: CellTiter-Glo cell viability assay (cytotoxicity), MCF-7/MX; type: cell-based; details: Homo sapiens, MCF7/MX; 48 h, BCRP-expressing, mean ± SEM
# Description: as §2, §3
# H69AR cells = test: CellTiter-Glo cell viability assay (cytotoxicity), H69AR; type: cell-based; details: Homo sapiens, 48 h, MRP1-expressing, mean ± SEM
# Description: as §2, §3
# P-gp = biological target: T3, P-gp (Homo sapiens, UniProt P08183); test: P-gp transport assay (calcein-AM) in HCT-15 cells; type: cell-based
# T3 construct: endogenous in cells; host or cells: HCT-15 human colon adenocarcinoma cells
# T3 sequence (P08183 whole entry): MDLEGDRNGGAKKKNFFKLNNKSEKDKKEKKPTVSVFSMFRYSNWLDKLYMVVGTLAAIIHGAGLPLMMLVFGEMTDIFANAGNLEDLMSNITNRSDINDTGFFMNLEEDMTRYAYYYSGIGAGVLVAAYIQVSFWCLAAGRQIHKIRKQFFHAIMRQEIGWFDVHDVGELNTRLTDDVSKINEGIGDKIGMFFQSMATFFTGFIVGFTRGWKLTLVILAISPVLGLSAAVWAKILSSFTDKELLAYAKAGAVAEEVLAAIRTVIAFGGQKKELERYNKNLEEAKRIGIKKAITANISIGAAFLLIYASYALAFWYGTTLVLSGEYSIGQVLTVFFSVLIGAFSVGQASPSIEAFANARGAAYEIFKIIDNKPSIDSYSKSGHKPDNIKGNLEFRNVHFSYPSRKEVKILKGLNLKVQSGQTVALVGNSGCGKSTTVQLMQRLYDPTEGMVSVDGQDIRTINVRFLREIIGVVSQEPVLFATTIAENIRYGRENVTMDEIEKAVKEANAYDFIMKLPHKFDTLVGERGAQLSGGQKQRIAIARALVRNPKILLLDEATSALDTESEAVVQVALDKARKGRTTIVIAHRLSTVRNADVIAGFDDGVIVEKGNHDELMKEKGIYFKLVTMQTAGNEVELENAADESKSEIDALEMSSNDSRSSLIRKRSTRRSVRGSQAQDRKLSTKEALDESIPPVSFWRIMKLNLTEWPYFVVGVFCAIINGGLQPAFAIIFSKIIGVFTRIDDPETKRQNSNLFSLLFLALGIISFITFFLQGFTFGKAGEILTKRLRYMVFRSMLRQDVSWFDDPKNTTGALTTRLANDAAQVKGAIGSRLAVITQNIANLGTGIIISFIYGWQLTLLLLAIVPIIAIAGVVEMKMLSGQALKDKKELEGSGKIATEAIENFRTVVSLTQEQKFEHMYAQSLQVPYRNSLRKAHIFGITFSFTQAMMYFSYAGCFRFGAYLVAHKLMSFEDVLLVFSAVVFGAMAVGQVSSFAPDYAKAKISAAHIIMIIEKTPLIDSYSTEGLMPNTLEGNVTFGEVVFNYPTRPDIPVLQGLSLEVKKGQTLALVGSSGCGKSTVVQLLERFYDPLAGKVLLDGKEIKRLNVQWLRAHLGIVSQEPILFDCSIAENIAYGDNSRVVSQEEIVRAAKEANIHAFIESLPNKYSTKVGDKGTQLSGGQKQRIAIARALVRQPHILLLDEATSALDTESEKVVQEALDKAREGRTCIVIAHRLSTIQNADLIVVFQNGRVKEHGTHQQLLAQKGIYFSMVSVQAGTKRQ
# Description: The transport of calcein-AM by P-gp and its modulation by test compounds was analyzed in the P-gp-expressing HCT-15 cell line. 5 × 10^4 cells were seeded in black 96-well plates and incubated at 37°C and 5% CO2 for 24 h. The culture medium was removed and replaced by Hank’s balanced salt solution supplemented with 10 mM HEPES. Test compounds, 2.5 μM PSC833 (positive control) or 0.5% DMSO (negative control) were added in triplicates and incubated for 30 min at 37°C and 5% CO2. The substrate calcein-AM was added (final concentration 0.5 μM) and the fluorescence (excitation 485 nm, emission 520 nm) was measured over 3 h with the Infinite m1000 pro microplate reader (Tecan Group AG, Männedorf, Switzerland) at 37°C. The transport activity of P-gp was analyzed by determining the slope of the linear part of the fluorescence-time curve (0–30 min) using linear regression. Normalization of the data to PSC833 (100% inhibition) and DMSO (0% inhibition) was performed.
# [3] = tested on: P-gp expressing HCT-15 cells; test: Sensitization of HCT-15 cells to doxorubicin (co-treatment, cell viability); type: cell-based, human
# Description: as §3
# (§4) The ability of identified inhibitors of P-gp and BCRP to sensitize HCT-15 or MCF-7/MX cells to chemotherapy was analyzed by co-treatment with test compounds and doxorubicin or mitoxantrone, respectively. Cells were incubated with a serial dilution of the chemotherapeutic drug alone or in combination with fixed concentrations of the test compounds or positive controls (2.5 μM PSC833 and 1 μM Ko143, respectively). Fold change of drug IC50 was calculated with the formula IC50 (drug alone)/IC50 (drug with modulator).
# [4] = tested on: BCRP-expressing MCF-7/MX cells; test: Sensitization of MCF-7/MX cells to mitoxantrone (co-treatment, cell viability); type: cell-based, human
# Description: as §3, §4
# [5] = human, P-gp-expressing HCT-15 cells, probe calcein-AM (0.5 μM), normalized to 2.5 μM PSC833 (100%) and DMSO (0%), read-out: Relative inhibition of P-gp
Structure (SMILES),Inhibition of BCRP (in words) (BCRP),IC50 (HCT-15 cells) [µM],IC50 (A549 cells) [µM],IC50 (MCF-7/MX cells) [µM],IC50 (H69AR cells) [µM],ATPase activity of Pdr5 WT inhibited to (initial screen) (Pdr5 [2]),other results
"COc1cc(O)c2c(c1)C[C@@H](C)OC2=O [6-Methoxymellein (3), 6-methoxymellein]",no inhibitory activity could be observed,> 100,> 100,> 100,> 100,–,R6G transport activity of Pdr5 WT inhibited to (initial screen) (Pdr5 [1]; listed as 3): no effect; R6G transport activity of Pdr5 WT inhibited to (initial screen) (Pdr5 [1]; listed as 6-methoxymellein (3)): did not interfere with Pdr5-mediated R6G transport; ATPase activity of Pdr5 WT inhibited to (initial screen) (Pdr5 [2]; listed as 3): nearly no effect; ATPase activity of Pdr5 WT inhibited to (initial screen) (Pdr5 [2]; listed as 6-methoxymellein (3)): no inhibitory effect; Inhibition of P-gp (in words) (P-gp): did not differ significantly from those of derivative 14
COc1cc(O)c2c(c1)C[C@H](CCO[Si](C)(C)C(C)(C)C)OC2=O [(R)-19],–,57.1 ± 7.5,47.5 ± 3.2,28.1 ± 0.7,> 100,–,IC50 (Pdr5 [1]): 26 ± 3.5 µM; R6G transport activity of Pdr5 WT inhibited to (initial screen) (Pdr5 [1]): inhibit the transport of R6G completely; also recorded: inhibit the transport activity of Pdr5 WT completely; inhibition at 20 μM (P-gp; [5]): > 20%
COc1cc(O)c2c(c1)C[C@H](CCO)OC2=O [(R)-19a],completely abolished inhibitory ability,> 100,> 100,> 100,> 100,nearly no effect; also recorded: no inhibition of the ATPase activity was observed,–
COc1cc(O)c2c(c1)C[C@@H](CCO[Si](C)(C)C(C)(C)C)OC2=O [(S)-19],–,> 100,42 ± 3.9,33.5 ± 7.5,86.8 ± 9.2,–,"IC50 (Pdr5 [1]): 5.3 ± 0.6 µM; R6G transport activity of Pdr5 WT inhibited to (initial screen) (Pdr5 [1]): inhibit the transport of R6G completely; also recorded: inhibit the transport activity of Pdr5 WT completely; inhibition at 10 μM (P-gp; human, P-gp-expressing HCT-15 cells, probe calcein-AM (0.5 μM), 10 μM, normalized to 2.5 μM PSC833 (100%) and DMSO (0%), read-out: Relative inhibition of P-gp): 37.1 ± 2.9%; inhibition at 20 μM (P-gp; [5]): > 20%"
COc1cc(O)c2c(c1)C[C@@H](CCO)OC2=O [(S)-19a],completely abolished inhibitory ability,> 100,> 100,89.8 ± 4.9,> 100,nearly no effect; also recorded: no inhibition of the ATPase activity was observed,–
COc1cc2c(c(OC)c1)C(=O)OCC2 [Compound 14a],did not inhibit BCRP,> 100,> 100,> 100,> 100,–,"Relative inhibition of P-gp, span over the tested concentrations (P-gp; different concentrations, normalized to PSC833): up to 10%"
COc1cc(O)c2c(=O)oc3ccccc3c2c1 [Compound 21],–,> 50,> 50,> 50,> 50,50% and 54%,Relative inhibition rate of P-gp (P-gp; highest concentration used): 20.0 ± 1.2%
"COc1cccc2c1C(=O)c1c(O)c3c(c(O)c1C2=O)C[C@@](O)(C(=O)CO)C[C@@H]3O[C@H]1C[C@H](N)[C@H](O)[C@H](C)O1 [Doxorubicin, doxorubicin, reference compound]",–,–,–,–,–,–,"IC50 ([3]; Homo sapiens, HCT-15, doxorubicin alone, 48 h): 8.5 ± 0.7 µM; Fold change of doxorubicin IC50 ([3]; doxorubicin alone (reference)): 1.00"
"O=C1c2c(O)ccc(O)c2C(=O)c2c(NCCNCCO)ccc(NCCNCCO)c21 [Mitoxantrone, mitoxantrone, reference compound]",–,–,–,–,–,–,"IC50 ([4]; Homo sapiens, MCF7/MX, mitoxantrone alone, 48 h): 19.6 ± 2.4 µM; Fold change of mitoxantrone IC50 ([4]; mitoxantrone alone (reference)): 1.00"
